These results are taken from US5407946A, “Pyrrolidine compounds which are useful as thromboxane AZ-inhibitors” (Adir et Compagnie, priority 1992, dated 1995).

For experiment [1], the target named is T1, thromboxane receptors (Cavia porcellus, UniProt A0A286Y4I8).
T1 construct: U46619 causes a bronchoconstriction which results in an increase in tracheal pressure; from tissue; host or cells: whole anesthetized guinea pig (in vivo, airways)
T1 sequence (A0A286Y4I8 1-347): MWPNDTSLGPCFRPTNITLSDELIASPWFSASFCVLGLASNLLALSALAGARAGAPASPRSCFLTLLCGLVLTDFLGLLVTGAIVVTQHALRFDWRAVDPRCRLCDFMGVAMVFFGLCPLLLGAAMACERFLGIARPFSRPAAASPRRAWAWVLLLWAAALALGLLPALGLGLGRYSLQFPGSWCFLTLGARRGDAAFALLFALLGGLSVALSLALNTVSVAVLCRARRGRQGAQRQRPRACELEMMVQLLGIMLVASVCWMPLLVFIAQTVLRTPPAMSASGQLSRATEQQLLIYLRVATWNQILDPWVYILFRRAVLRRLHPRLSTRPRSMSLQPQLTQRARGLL
The experiment is described as follows: IC50 on the tracheal pressure in guinea pigs (bronchoconstriction induced by U46619 in vivo). The following applies: guinea pig, iv, 5 min; anesthetized guinea pigs, antagonist injected 5 minutes before U46619 (2 μg/kg i.v.), jugular vein; read-out: IC50, antagonist dose which inhibits by 50% the increase in tracheal pressure caused by U46619. The text has this: Male albino guinea pigs (350-400 g), subjected to an 18-hour water diet, are anesthetized with ethylcarbamate (1.25 g/kg i.p.). A catheter is introduced into the carotid artery in order to measure the blood pressure by means of a pressure cell. A second catheter is introduced introduced into the jugular vein and is used for injecting the pharmacological substances. The trachea is cannulated and the guinea pig is placed under assisted respiration by means of a respirator. The temperature of the animal is kept at 37° C. by means of a thermostated cover. A needle pricked into the tracheal cannula is connected to a pressure cell and allows the tracheal pressure to be recorded. The guinea pigs are pretreated with d-tubocurarine (1 mg/kg i.v.) and with indomethacin (10 mg/kg i.v.). Injected at a dose of 2 μg/kg i.v., U46619 causes a bronchoconstriction which results in an increase in tracheal pressure and induces an increase in blood pressure. The responses to U46619 are reversible and reproducible if the injections are performed every 10 minutes.
The antagonists of thromboxane receptors are injected 5 minutes before the injections of U46619. The antagonist dose which inhibits by 50% the increase in tracheal pressure caused by U46619 is determined (IC50).

Experiment [2] concerns the target T2, TXA2 receptors (Oryctolagus cuniculus, UniProt Q6WQI8).
T2 construct: citrated platelet-rich plasma, U46619-induced aggregation
T2 sequence (Q6WQI8 1-233): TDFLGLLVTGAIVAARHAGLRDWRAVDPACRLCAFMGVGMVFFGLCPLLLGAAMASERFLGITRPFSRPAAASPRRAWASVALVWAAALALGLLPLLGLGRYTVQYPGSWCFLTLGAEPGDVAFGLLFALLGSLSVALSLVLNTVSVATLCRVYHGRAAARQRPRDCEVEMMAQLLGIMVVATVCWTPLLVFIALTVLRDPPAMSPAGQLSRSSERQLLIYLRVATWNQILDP
The experiment is described as follows: Platelet aggregation induced by U46619 in rabbit platelet-rich plasma (PRP). In kind it is cell-based. As to conditions: 37° C., antagonist added 3 min before U46619 (1.2 μM), read-out: IC50, concentration which induces 50% inhibition of the aggregation response induced by U46619. The method, then:
The rabbits (2-3 kg) are anesthetized with sodium pentobarbital (30 mg/kg i.v.). After cannulation of the left carotid artery, the blood is collected over sodium citrate (0.109 M) (1 vol. of citrate per 9 vol. of blood).
The plasma which is high in platelets (PRP) is obtained by centrifugation (20° C.) at 250 g for 20 minutes and the plasma which is low in platelets (PPP) by centrifugation at 1000 g (10 min). The number of platelets (PL) in the PRP is adjusted to between 300-350,000 pl/mm^3 by dilution with autologous PPP. The PRP is stored at room temperature up to the time of the test and is used within 4 hours following the collection. Platelet aggregation is performed at 37° C. in glass tubes siliconized by means of an aggregometer. The PRP and PLs are stirred at 1000 rpm (revolution per minute). In order to study the activity of the thromboxane antagonists, the PRP is incubated for 1 min at 37° C., and the antagonist is then added for a period of 3 min before adding the agonist U46619 (1.2 μM). The final volume of the cuvette is then 250 μl. The extent of platelet aggregation is determined by measuring the maximum amplitude of the aggregation plots and is expressed as a percentage of light transmission (% T). The activity of the antagonists is expressed as IC50, that is to say the concentration of the substance which induces 50% inhibition of the aggregation response induced by U46619.

The target in experiment [3] is T3, TXA2 receptors (Cavia porcellus, UniProt A0A286Y4I8).
T3 construct: the trachea is rapidly removed and then cut out into rings containing two cartilages; from tissue; host or cells: guinea pig trachea rings
T3 sequence (A0A286Y4I8 1-347): T1 sequence (A0A286Y4I8 1-347)
The experiment is described as follows: Determination of the pA2 values on guinea pig trachea (contractions caused by U46619). Format: cell-based. The following applies: guinea pig tracheal rings, 37° C., agonist U46619 10^-9 M to 10^-5 M, antagonist contact 20 minutes; read-out: pA2 (negative logarithm of the concentration of antagonist in the presence of which twice the amount of agonist is required for the same effect) (converted). The method, then: 400-500-gram albino male guinea pigs were sacrificed by striking the nape of the neck and by pulling the neck. The throat is cut and the trachea is rapidly removed and then cut out into rings containing two cartilages. These rings are mounted between two hooks in cuvettes thermostated at 37° C., containing physiological saline (composition in mM: 118 NaCl; 25 NaHCO3; 10 glucose; 4.7 KCl; 1.25 CaCl2; 1.19 MgSO4; 1.14 KH2 PO4).
The physiological saline is bubbled with a mixture of 95% O2 -5% CO2. The bottom hook constitutes the fixed point while the upper hook is connected to an isometric force sensor. The tissues are placed under a basal tension of 3.5 grams. The pharmacological substances studied are prepared immediately before use. The drugs are solubilized in water or in dimethyl sulfoxide.
After mounting, the preparations are allowed to stand for 90 minutes, rinsings being carried out every 30 minutes. After readjusting the basal tension, a contraction generated by a single dose of agonist (U46619; 10^-5 M) is generated in order to stabilize subsequent contractions. After washing and returning to the base line, a first effect/concentration curve is produced by the addition of cumulative doses of U46619 (10^-9 M to 10^-5 M; the interval between the doses is a semilog). This first experiment makes it possible to calculate the effective concentration 50% (EC50) "control".
This EC50 is routinely calculated in the following manner: the tension values are first converted to percentages relative to the maximum effect, these percentages are then plotted on a graph with the percentages on the y-axis and the log(concentration) values on the x-axis. A linear regression is then performed on the points between 10% and 90% (which corresponds to the linear portion of the sigmoid curve). The concentration corresponding to half maximum effect (50%) can be easily calculated by means of the parameters of the straight line.
After washing and returning to the base line, the organ is placed in contact with the antagonist ([…]) for 20 minutes. A second effect/concentration curve is then produced in the presence of the antagonist and the "treated" EC50 can then be calculated. All the elements required for calculating the pA2 (competitive antagonism) or the pD2 (noncompetitive antagonism) are thus available.
The pA2 (which represents the negative logarithm of the concentration of antagonist in the presence of which twice the amount of agonist is required in order to obtain the same effect) is determined by plotting on a graph the log((L/l)-1) values relative to the log(concentration of antagonist), with L=effect in the presence of antagonist and 1=control effect. In this test, the pA2 values for the compounds of Examples 14 and 18 are as follows: […]

`O=C(O)CC/C=C\C[C@@H]1CN(S(=O)(=O)c2cccc3cnccc23)C[C@@H]1c1ccccc1O` (relative stereo) [Example 24, (4Z)-6-[(3α,4α)-1-[(Isoquinol-5-yl)sulfonyl]-4-(2-hydroxyphenyl)pyrrolidin-3-yl]hex-4-enoic acid]: the ED50 in experiment [1] is 0.01 mg/kg. The IC50 in experiment [2] turned out to be 800 nM. The Kb in experiment [3] is 0.316 nM.

`O=C(O)CCC/C=C\C[C@@H]1CN(S(=O)(=O)c2cccc3cnccc23)C[C@@H]1c1ccccc1O` (relative stereo) [Example 30, (5Z-7-[(3α,4α)-1-[(Isoquinolyl-5-yl)sulfonyl]-4-(2-hydroxyphenyl)pyrrolidin-3-yl)]hept-5-enoic acid]: the ED50 in experiment [1] was determined as 0.08 mg/kg. In addition, the IC50 in experiment [2] came to 500 nM.

With `O=C(O)CCC/C=C\C[C@@H]1CN(Cc2ccccc2)C[C@@H]1c1ccccc1O` (relative stereo) [Example 14, (5Z)-7-[(3α,4α)-1-Benzyl-4-(2-hydroxyphenyl)pyrrolidin-3-yl]hept-5-enoic acid], the ED50 in experiment [1] was found to be 1.02 mg/kg. The Kb in experiment [3] is 282 nM.

Take `O=C(O)CC/C=C\C[C@@H]1CN(S(=O)(=O)c2cccc3cnccc23)C[C@H]1c1ccccc1O` (relative stereo) [Example 25, (4Z)-6-[(3α,4β)-1-[(Isoquinol-5-yl)sulfonyl]-4-(2-hydroxyphenyl)pyrrolidin-3-yl]hex-4-enoic acid]: the ED50 in experiment [1] was found to be 0.06 mg/kg. Further, the IC50 in experiment [2] was 5000 nM.

Turning to `O=C(O)CCC/C=C\[C@@H]1CN(Cc2ccccc2)C[C@@H]1c1ccccc1O` (relative stereo) [Example 13, (5Z) -6-[(3α,4α) -1-Benzyl-4-(2-hydroxyphenyl)pyrrolidin-3-yl]hex-5-enoic acid], the ED50 in experiment [1] was determined as 2.28 mg/kg.

For `CC(C)C(=O)N1C[C@@H](C/C=C\CCC(=O)O)[C@H](c2ccccc2O)C1` (relative stereo) [Example 20, (4Z)-6-[(3α,4β)-1-Isobutyroyl-4-(2-hydroxyphenyl)pyrrolidin-3-yl]hex-4-enoic acid], in experiment [1], the ED50 stood at 1.31 mg/kg.

In the case of `O=C(O)CC/C=C\C[C@@H]1CN(C(=O)Nc2ccccc2)C[C@@H]1c1ccccc1O` (relative stereo) [Example 22, (4Z)-6-[(3α,4α)-1-Phenylaminocarbonyl-4-(2-hydroxyphenyl)pyrrolidin-3-yl]hex-4-enoic acid], the ED50 in experiment [1] worked out at 1.21 mg/kg. Moreover, the IC50 in experiment [2] was found to be 4000 nM.

As for `CC(C)C(=O)N1C[C@@H](C/C=C\CCC(=O)O)[C@@H](c2ccccc2O)C1` (relative stereo) [Example 19], in experiment [1], the ED50 came out at 0.1 mg/kg. Also, the Kb in experiment [3] is 200 nM.

Regarding `O=C(O)CC/C=C\C[C@@H]1CN(S(=O)(=O)c2cccc3cccnc23)C[C@@H]1c1ccccc1O` (relative stereo) [Example 27, (4Z)-6-[(3α,4α)-1-[(Quinol-8-yl)sulfonyl]-4-(2-hydroxyphenyl)pyrrolidin-3-yl]hex-4-enoic acid], the ED50 in experiment [1] came out at 0.03 mg/kg.

In the case of `O=C(O)CC/C=C\C[C@@H]1CN(Cc2ccccc2)C[C@@H]1c1ccccc1O` (relative stereo) [Example 15, (4Z) -6[(3α,4α) -1-Benzyl-4-(2-hydroxyphenyl)pyrrolidin-3-yl]hex-4-enoic acid], the ED50 in experiment [1] worked out at 0.177 mg/kg.

`O=C(O)CC/C=C\C[C@@H]1CN(S(=O)(=O)c2ccc3ccccc3c2)C[C@@H]1c1ccccc1O` (relative stereo) [Example 29]: in experiment [1], the ED50 turned out to be 0.11 mg/kg.

Regarding `O=C(O)CC/C=C\C[C@H]1CN(Cc2cccnc2)C[C@H]1c1ccccc1O` (relative stereo) [Example 21, (4Z)-6-[(3α, 4α)-4-(2-hydroxyphenyl)-1-[(3-pyridyl)methyl]pyrrolidin-3-yl]hex-4-enoic acid], the ED50 in experiment [1] is 1.03 mg/kg. Further, in experiment [3], the Kb is 1580 nM.

For the compound `O=C(O)CC/C=C\C[C@@H]1CN(S(=O)(=O)c2cccc3ccccc23)C[C@@H]1c1ccccc1O` (relative stereo) [Example 28], the ED50 in experiment [1] worked out at 0.01 mg/kg. The IC50 in experiment [2] is 500 nM. In experiment [3], the Kb is 1.58 nM.

With `O=C(O)CC/C=C\C[C@@H]1CN(S(=O)(=O)c2ccc(Cl)cc2)C[C@H]1c1ccccc1O` (relative stereo) [Example 18, (4Z)-6-[(3α, 4β)-1-(4-Chlorophenylsulfonyl)-4-(2-hydroxyphenyl)pyrrolidin-3-yl]hex-4-enoic acid], the ED50 in experiment [1] worked out at 0.03 mg/kg. The IC50 in experiment [2] was found to be 5400 nM. In addition, in experiment [3], the Kb is 7.94 nM.

On to `CCCCCCC(=O)N1C[C@@H](C/C=C\CCC(=O)O)[C@@H](c2ccccc2O)C1` (relative stereo) [Example 23, (4Z)-6-[(3α,4α)-1-Heptanoyl-4-(2-hydroxyphenyl)pyrrolidin-3-yl]hex-4-enoic acid], for which, in experiment [1], the ED50 came out at 0.43 mg/kg. Further, the Kb in experiment [3] was 20 nM.
